Test: molar heat capacity at constant pressure
Settings: 101.33 kPa, Crystal, Vacuum adiabatic calorimetry

O=C(CO)[C@@H](O)[C@@H](O)[C@H](O)CO [D-(-)-tagatose]
Settings | molar heat capacity at constant pressure [J/K/mol]
10 K | 0.94
14.02 K | 2.674
14.41 K | 2.87
14.81 K | 3.123
15.25 K | 3.307
15.73 K | 3.601
16.23 K | 3.917
16.72 K | 4.241
17.21 K | 4.591
17.74 K | 4.922
18.26 K | 5.33
18.79 K | 5.733
19.32 K | 6.103
19.88 K | 6.523
20 K | 6.61
20.46 K | 6.946
21.02 K | 7.413
21.59 K | 7.933
22.17 K | 8.327
22.74 K | 8.872
23.29 K | 9.326
23.86 K | 9.837
24.43 K | 10.34
24.96 K | 10.79
25.5 K | 11.35
26.05 K | 11.75
26.63 K | 12.36
27.21 K | 12.84
27.8 K | 13.39
28.43 K | 14.04
29.08 K | 14.61
29.7 K | 15.2
30 K | 15.48
30.32 K | 15.75
30.93 K | 16.36
31.54 K | 16.95
32.18 K | 17.49
32.85 K | 18.2
33.51 K | 18.79
34.17 K | 19.45
34.85 K | 20.14
35.56 K | 20.8
36.25 K | 21.42
36.92 K | 22.12
37.6 K | 22.72
38.32 K | 23.45
39.06 K | 24.19
39.8 K | 24.86
40 K | 25.07
40.56 K | 25.59
41.34 K | 26.39
42.12 K | 27.17
42.9 K | 27.84
43.73 K | 28.66
44.59 K | 29.45
45.47 K | 30.31
46.33 K | 31.15
47.17 K | 31.93
48.01 K | 32.72
48.86 K | 33.49
49.73 K | 34.49
50 K | 34.58
50.59 K | 35.1
51.44 K | 35.9
52.28 K | 36.7
53.12 K | 37.43
53.94 K | 38.19
54.73 K | 38.96
55.51 K | 39.6
56.29 K | 40.34
57.09 K | 41.06
57.89 K | 41.8
58.7 K | 42.51
59.51 K | 43.28
60 K | 43.72
60.35 K | 44.06
61.19 K | 44.77
62.02 K | 45.55
62.84 K | 46.28
63.66 K | 46.99
64.47 K | 47.71
65.28 K | 48.44
66.09 K | 49.12
66.9 K | 49.84
67.72 K | 50.53
68.52 K | 51.3
69.3 K | 51.99
70 K | 52.55
70.08 K | 52.63
70.85 K | 53.29
71.66 K | 54
72.51 K | 54.75
73.34 K | 55.43
74.17 K | 56.15
74.99 K | 56.78
75.84 K | 57.55
76.73 K | 58.37
77.61 K | 59.05
78.48 K | 59.83
79.34 K | 60.58
80 K | 61.11
80.24 K | 61.32
81.18 K | 62.13
82.13 K | 62.93
83.07 K | 63.68
84.01 K | 64.47
85 K | 65.34
86.03 K | 66.11
87.06 K | 66.91
88.1 K | 67.79
89.12 K | 68.69
90 K | 69.42
90.18 K | 69.57
91.27 K | 70.49
92.35 K | 71.33
93.42 K | 72.22
94.47 K | 73.05
95.56 K | 73.96
96.68 K | 74.84
97.79 K | 75.75
98.88 K | 76.69
99.96 K | 77.46
100 K | 77.52
101.1 K | 78.37
102.28 K | 79.32
103.46 K | 80.27
104.64 K | 81.16
105.83 K | 82.14
107.05 K | 83.09
108.3 K | 84.09
109.54 K | 85.07
110 K | 85.43
110.79 K | 86.05
112.05 K | 87.01
113.37 K | 88.06
114.74 K | 89.11
116.09 K | 90.16
117.44 K | 91.23
118.77 K | 92.2
120 K | 93.18
120.13 K | 93.3
121.52 K | 94.39
122.9 K | 95.4
124.27 K | 96.48
125.63 K | 97.47
127.06 K | 98.59
128.55 K | 99.75
130 K | 100.79
130.03 K | 100.83
131.5 K | 101.97
132.96 K | 103.07
134.45 K | 104.19
135.97 K | 105.29
137.47 K | 106.45
138.97 K | 107.56
140 K | 108.3
140.45 K | 108.68
141.96 K | 109.8
143.5 K | 110.93
145.03 K | 112.09
146.55 K | 113.1
148.1 K | 114.27
149.72 K | 115.49
150 K | 115.72
151.43 K | 116.75
153.17 K | 118.02
154.9 K | 119.31
156.62 K | 120.56
158.37 K | 121.84
160 K | 123.1
160.14 K | 123.23
161.94 K | 124.54
163.76 K | 125.92
165.57 K | 127.19
167.41 K | 128.53
169.28 K | 129.9
170 K | 130.45
171.14 K | 131.27
172.99 K | 132.6
174.82 K | 134.01
176.68 K | 135.37
178.57 K | 136.72
180 K | 137.8
180.49 K | 138.21
182.43 K | 139.62
184.37 K | 141.02
186.33 K | 142.53
188.32 K | 143.96
190 K | 145.19
190.29 K | 145.43
192.26 K | 146.89
194.22 K | 148.2
196.2 K | 149.78
198.21 K | 151.32
200 K | 152.62
200.21 K | 152.77
202.19 K | 154.24
204.24 K | 155.8
206.37 K | 157.27
208.53 K | 159.03
210 K | 160.09
210.68 K | 160.61
212.82 K | 162.18
214.94 K | 163.84
217.1 K | 165.39
219.28 K | 167.07
220 K | 167.61
221.45 K | 168.71
223.6 K | 170.37
225.82 K | 171.99
228.13 K | 173.74
230 K | 175.16
230.48 K | 175.53
232.81 K | 177.33
235.13 K | 179.15
237.48 K | 180.87
239.92 K | 182.64
240 K | 182.74
242.39 K | 184.45
244.84 K | 186.37
247.28 K | 188.22
249.7 K | 190.03
250 K | 190.36
252.15 K | 192.06
254.63 K | 194.03
257.1 K | 195.94
259.55 K | 197.81
260 K | 198.11
261.98 K | 199.73
264.45 K | 201.55
266.94 K | 203.51
269.42 K | 205.41
270 K | 206.1
271.88 K | 207.63
274.33 K | 209.55
276.81 K | 211.93
279.31 K | 213.91
280 K | 214.24
281.79 K | 215.77
284.26 K | 217.69
286.73 K | 219.65
289.21 K | 221.51
290 K | 222.17
291.73 K | 223.31
294.22 K | 225.32
296.71 K | 227.47
298.15 K | 228.55
299.18 K | 229.22
300 K | 229.99
301.76 K | 231.28
304.46 K | 233.53
307.14 K | 235.53
309.81 K | 237.67
310 K | 237.81
312.46 K | 239.92
315.14 K | 241.99
317.84 K | 244.2
320 K | 245.73
320.53 K | 246.19
323.2 K | 248.11
325.86 K | 250.28
328.54 K | 252.68
330 K | 253.86
331.25 K | 254.96
